Source: US7166622B2, “Substituted phenylsulfonamide inhibitors of beta amyloid production” (Wyeth, priority 2002, dated 2007)

Experiments:
[1] = test system: beta amyloid production; experiment: Repressor Release Assay (RRA); type: cell-based; settings: luciferase activity over diluent control, read-out: APPI Fold Increase; for fold induction at 10 µg/mL: Conc 10 μg/ml; for fold induction at 20 µg/mL: Conc 20 μg/ml; for fold induction at 3 µg/mL: Conc 3 μg/ml
Method: CHO-K1 cells were cultured in whole DMEM media (DMEM—High Glucose with 10% fetal bovine serum, 1% Non-essential Amino Acids, and 1% Penicillin-Streptomycin) at 37° C. with 5% CO2. Two million cells were plated into 10-cm dishes 24 hrs prior to transfection.
Transient transfections were completed as recommended by Gibco BRL using their Lipofectamine Plus system. First, 6 μg of pRSVO-luc and 6 μg of APP-lacI construct DNA were added to 460 μL Opti-Mem transfection media and incubated with 30 μL Plus reagent for 15 minutes. Then, a lipid mixture of 40 μL Lipofectamine reagent and 460 μL Opti-Mem transfection media was incubated with the DNA-Plus reagent mixture for 15 minutes. During the DNA-lipid incubation, the CHO-K1 cells were washed once and covered in 5.0 mL DMEM media without Penicillin-Streptomycin. The DNA-lipid preparation was then layered onto these cells and incubated at 37° C. overnight.
[…] transfected cells per well (100 μL total volume) were plated into sterile, opaque Packard 96-well Culture-Plates in clear DMEM whole media (DMEM—without phenol red) and incubated at 37° C. with 5% CO2 for 3-5 hours.
Compounds were diluted using two different protocols; one protocol was used for compounds supplied neat (weighed powder in vial) and the other protocol was used for compounds supplied in solution (20 mM in DMSO in 96-well plates). For both protocols, 25 mM Hepes and 25 mM Hepes/1% DMSO were prepared fresh to be used as diluent. The Hepes/DMSO was used as the diluent control on all experimental plates.
The following table depicts the steps for compound dilution (please note that the last step was the addition of compound to cells/media in tissue culture plate).
Because some compounds were present in 96-well format at 20 mM, the following represents the protocol for their dilution (note that an average molecular weight of these compounds was used to calculate these dilutions and as above, the last step was the addition of compound to cells/media in tissue culture plate).
Once the compounds were diluted, they were applied in duplicate on cells in tissue culture plates (prepared above). Cells were incubated with compound at 37° C. with 5% CO2 for an additional 36-48 hours.
Luciferase assays (LucLite reagent, Packard) were performed and were read on a Packard TopCount instrument. Media was removed from each 96-well plate and replaced with 100 μL PBS per well (with Mg^2+ and Ca^2+). An equal volume (100 μL) of the LucLite lysis/substrate buffer was added to each well and the plates were sealed and mixed in the dark on a rotary shaker for 15-30 minutes at room temperature. Luciferase readings were then taken on the TopCount instrument. Measurements were expressed as relative light units (RLU) and are calculated and analyzed in MS Excel as follows: […]

[2] = test system: CHO-K1 cells; experiment: Toxicity in RRA (loss of luciferase signal); settings: toxicity = loss of signal (<0.75 fold increase)
Method: The beta amyloid inhibitory activity of the compounds of the present invention was determined using the Repressor Release Assay (RRA).
“Fold Increase” refers to the amount of luciferase activity (measured in relative light units) over diluent control. “SEM” refers to the standard error of the mean for fold increase.

SMILES	fold induction at 20 µg/mL [1]	(%)APPI Toxicity ([2]; Conc 20 μg/ml)	further results
CC[C@H](C)[C@@H](CO)NS(=O)(=O)c1ccc(F)cc1F [Example 9, 2,4-difluoro-N-[(1S,2S)-1-(hydroxymethyl)-2-methylbutyl]benzenesulfonamide]	1.8	1 (1=non-toxic)	fold induction at 10 µg/mL [1]: 2.2; (%)APPI Toxicity ([2]; Conc 10 μg/ml): 1 (1=non-toxic)
CC[C@H](C)[C@@H](CO)NS(=O)(=O)c1ccc(F)cc1 [Example 10, 4-fluoro-N-[(1S,2S)-1-(hydroxymethyl)-2-methylbutyl]benzenesulfonamide]	3.3	1 (1=non-toxic)	
CC[C@H](C)[C@@H](CO)NS(=O)(=O)c1ccccc1F [Example 11, 2-fluoro-N-[(1S,2S)-1-(hydroxymethyl)-2-methylbutyl]benzenesulfonamide]	2.3	1 (1=non-toxic)	
CC[C@H](C)[C@@H](CO)NS(=O)(=O)c1cccc2ccccc12 [Example 12, N-[(1S,2S)-1-(hydroxymethyl)-2-methylbutyl]naphthalene-1-sulfonamide]	2.9	1 (1=non-toxic)	
CC[C@H](C)[C@@H](CO)NS(=O)(=O)c1ccc2ccccc2c1 [Example 13, N-[(1S,2S)-1-(hydroxymethyl)-2-methylbutyl]naphthalene-2-sulfonamide]	1.8	1 (1=non-toxic)	
O=S(=O)(N[C@H](CO)Cc1ccccc1)c1ccc(Br)cc1 [Example 15, N-[(1S)-1-benzyl-2-hydroxyethyl]-4-bromobenzenesulfonamide]	1.5	1 (1=non-toxic)	
O=S(=O)(N[C@H](CO)C1CCCCC1)c1ccc(Br)cc1 [Example 16, 4-Bromo-N-[(1S)-1-cyclohexyl-2-hydroxyethyl]benzenesulfonamide]	2.7	1 (1=non-toxic)	
O=S(=O)(N[C@@H](CO)c1ccc(O)cc1)c1ccc(Br)cc1 [Example 17, 4-bromo-N-[(1R)-2-hydroxy-1-(4-hydroxyphenyl)ethyl]benzenesulfonamide]	2.2	1 (1=non-toxic)	
CC(C)C[C@@H](CO)NS(=O)(=O)c1ccc(Br)cc1 [Example 18, 4-bromo-N-[(1S)-1-(hydroxymethyl)-3-methylbutyl]benzenesulfonamide]	1.9	1 (1=non-toxic)	
O=S(=O)(N[C@H](CO)Cc1cc2ccccc2[nH]1)c1ccc(Br)cc1 [Example 19, 4-bromo-N-[(1S)-2-hydroxy-1-(1H-indol-2-ylmethyl)ethyl]benzenesulfonamide]	1.6	1 (1=non-toxic)	
CC[C@H](C)[C@@H](CO)NS(=O)(=O)c1cc(F)c(Br)cc1F [Example 20, 4-Bromo-2,5-difluoro-N-[(1S,2S)-1-(hydroxymethyl)-2methylbutyl]benzenesulfonamide]	3.3	1 (1=non-toxic)	
CC[C@H](C)[C@@H](CO)NS(=O)(=O)c1cc(Br)ccc1Br [Example 21, 2,5-dibromo-N-[(1S,2S)-1-(hydroxymethyl)-2-methylbutyl]benzenesulfonamide]	1.6	1 (1=non-toxic)	
CC[C@H](C)[C@@H](CO)NS(=O)(=O)c1ccc(Br)c(Br)c1 [Example 22, 3,4-dibromo-N-[(1S,2S)-1-(hydroxymethyl)-2-methylbutyl]benzenesulfonamide]	1.7	1 (1=non-toxic)	
CC[C@H](C)[C@@H](CO)NS(=O)(=O)c1cccc(Cl)c1Cl [Example 23, 2,3-dichloro-N-[(1S,2S)-1-(hydroxymethyl)-2-methylbutyl]benzenesulfonamide]	8.3	1 (1=non-toxic)	fold induction at 3 µg/mL [1]: 1.67; fold induction at 10 µg/mL [1]: 3.6; (%)APPI Toxicity ([2]; Conc 3 μg/ml): 1 (1=non-toxic); (%)APPI Toxicity ([2]; Conc 10 μg/ml): 1 (1=non-toxic)
CC[C@H](C)[C@@H](CO)NS(=O)(=O)c1ccc(Cl)c(Cl)c1 [Example 24, 3,4-dichloro-N-[(1S,2S)-1-(hydroxymethyl)-2-methylbutyl]benzenesulfonamide]	1.6	1 (1=non-toxic)	
CC[C@H](C)[C@@H](CO)NS(=O)(=O)c1cc(Cl)c(Cl)cc1Cl [Example 25, 2,4,5-trichloro-N-[(1S,2S)-1-(hydroxymethyl)-2-methylbutyl]benzenesulfonamide]	1.8	1 (1=non-toxic)	
CC(C)[C@@H](CO)NS(=O)(=O)c1cc(F)c(Br)cc1F [Example 26, 4-bromo-2,5-difluoro-N-[(1S)-1-(hydroxymethyl)-2-methylpropyl]benzenesulfonamide]	2.4	1 (1=non-toxic)	
CC(C)[C@@H](CO)NS(=O)(=O)c1ccc(Cl)c(Cl)c1 [Example 27, 3,4-dichloro-N-[(1S)-1-(hydroxymethyl)-2-methylpropyl]benzenesulfonamide]	2.2	1 (1=non-toxic)	
CC(C)[C@@H](CO)NS(=O)(=O)c1c(Cl)cc(Cl)cc1Cl [Example 28, 2,4,6-trichloro-N-[(1S)-1-(hydroxymethyl)-2-methylpropyl]benzenesulfonamide]	1.5	1 (1=non-toxic)	
CC(C)(C)[C@@H](CO)NS(=O)(=O)c1ccc(Cl)c(Cl)c1 [Example 30, 3,4-dichloro-N-[(1S)-1-(hydroxymethyl)-2,2-dimethylpropyl]benzenesulfonamide]	2.1	1 (1=non-toxic)	
CC(C)(C)[C@@H](CO)NS(=O)(=O)c1cc(Cl)c(Cl)cc1Cl [Example 31, 2,4,5-trichloro-N-[(1S)-1-(hydroxymethyl)-2,2-dimethylpropyl]benzenesulfonamide]	2.8	1 (1=non-toxic)	
CC(C)(C)[C@@H](CO)NS(=O)(=O)c1c(Cl)cc(Cl)cc1Cl [Example 32, 2,4,6-trichloro-N-[(1 S)-1-(hydroxymethyl)-2,2-dimethylpropyl]benzenesulfonamide]	2.2	1 (1=non-toxic)	
CC[C@@H](C)[C@H](CO)NS(=O)(=O)c1ccc(Br)cc1 [Example 33, 4-Bromo-N-[(1R,2R)-1-(hydroxymethyl)-2-methylbutyl]benzenesulfonamide]	3.9	1 (1=non-toxic)	
CC(C)[C@@](C)(CO)NS(=O)(=O)c1ccc(Br)cc1 [Example 34, 4-bromo-N-[(1 S)-1-(hydroxymethyl)-1,2-dimethylpropyl]benzenesulfonamide]	4.2	1 (1=non-toxic)	
CC(c1ccccc1)C(CO)NS(=O)(=O)c1ccc(Br)cc1 (centres unmarked) [Example 35, 4-bromo-N-[-1-(hydroxymethyl)-2-phenylpropyl]benzenesulfonamide]	2.4	1 (1=non-toxic)	
CC[C@@H](C)[C@@H](CO)NS(=O)(=O)c1ccc(Br)cc1 [Example 36, 4-bromo-N-[(1S,2R)-1-(hydroxymethyl)-2-methylbutyl]benzenesulfonamide]	6.4	1 (1=non-toxic)	fold induction at 1 µg/mL ([1]; Conc 1 μg/ml): 1.6; fold induction at 3 µg/mL [1]: 2.05; fold induction at 10 µg/mL [1]: 3.33; (%)APPI Toxicity ([2]; Conc 1 μg/ml): 1 (1=non-toxic); (%)APPI Toxicity ([2]; Conc 3 μg/ml): 1 (1=non-toxic); (%)APPI Toxicity ([2]; Conc 10 μg/ml): 1 (1=non-toxic)
CC(C)[C@@](C)(CO)NS(=O)(=O)c1ccc(Cl)cc1 [Example 37, 4-chloro-N-[(1S)-1-(hydroxymethyl)-1,2-dimethylpropyl]benzenesulfonamide]	4.7	1 (1=non-toxic)	
CC(c1ccccc1)C(CO)NS(=O)(=O)c1ccc(Cl)cc1 (centres unmarked) [Example 38, 4-chloro-N-[1-(hydroxymethyl)-2-phenylpropyl]benzenesulfonamide]	3.3	1 (1=non-toxic)	
